Assay results reported in patent US7785828B1 (priority 2003, dated 2010).

Tests used:
[1] = test system: Septoria tritici; assay type: cell-based
[2] = test system: Fusarium graminearum; design: species or system wheat; settings: in vivo
[3] = test system: Fusarium graminearum; assay type: cell-based
[4] = test system: Mycosphaerella fijiensis; assay type: cell-based
[5] = test system: Septoria tritici; assay type: cell-based; design: key: + indicates a 1- to 5-fold improvement in activity compared to a reference defensin protein; ++ indicates a >5- to 10-fold improvement; +++ indicates a >10-fold improvement; “0” indicates no activity detected

Row | Sequence | Antifungal activity, Septoria tritici (improvement compared to DmAMP1) [1] | disease spread compared to NP or wildtype defensin expression level in the infected plant [2] | Antifungal activity, Fusarium graminearum (improvement compared to DmAMP1) [3] | Antifungal activity, Mycosphaerella fijiensis (improvement compared to DmAMP1) [4] | Activity (2): antifungal activity against Septoria tritici [5]
1 | NLCERASKTWSGNCGNTKHCDNQCKNWEGAKHGACHVRNGKHKCFCYFNC [L6-28] (Defensin like) | + (key: + indicating 1- to 5-fold improvement compared to DmAMP1; ++ indicating >5- to 10-fold improvement; +++ indicating >10-fold improvement) | No clear correlation | +++ (key: + indicating 1- to 5-fold improvement compared to DmAMP1; ++ indicating >5- to 10-fold improvement; +++ indicating >10-fold improvement) | + (key: + indicating 1- to 5-fold improvement compared to DmAMP1; ++ indicating >5- to 10-fold improvement; +++ indicating >10-fold improvement) | –
2 | QKLCEKPSRTWSGVCGNNNACKNQCIRLEKARHGSCNYRFPAHKCICYVPC (Defensin like) [L1-01] | – | – | – | – | 0
